Assay results as given in patent US20180016593A1, “HERBICIDE-RESISTANT SUNFLOWER PLANTS, POLYNUCLEOTIDES ENCODING HERBICIDE-RESISTANT ACETOHYDROXYACID SYNTHASE LARGE SUBUNIT PROTEINS, AND METHODS OF USE” (priority 2005, published 2018).
Like-named read-outs stand apart in the source and are kept apart here.

What was measured:
Type in all cases: in vivo, Helianthus annuus
[1] = system: sunflower TH11 (Hybrid, A122T); details: 14 DAT
Method: (§1) A greenhouse study was conducted to quantify and contrast the imazapir sensivity of the mutants A122T and A205V in different genetic backgrounds at the whole plant level in sunflower. Seeds of the different sunflower lines that were used in this study were obtained under field conditions.
(§2) Seeds were sown in Petri dishes and, after germination, plantlets were transplanted to pots of 10 cm of diameter in a potting media consisting of equal parts of vermiculite, soil and sand. Plants were grown in a greenhouse under natural light conditions supplemented with 400 W sodium halide lamps to provide a 16 hrs daylength. Day/night temperatures were 25 and 20° C., respectively. At the V2 stage 10 plants of each genotype were randomly assigned to each treatment consisting of […] imazapir doses (0, 40, 80, 160, 240, 320, 400 and 480 g ai/ha), and a zero-time biomass determination. Experiment was arranged as a randomized block design with a full factorial (sunflower line×treatment) arrangement of treatments and 10 replications.
(§3) On the day of herbicide application ten plants of each genotype were cut at the cotyledonal node and dried at 60° C. for 48 hrs zero-time for dried weight determination.
(§4) Height was determined as the distance between the cotyledonal node and the apex of each plant. For root biomass determination, each plant was taken from the pot and the potting media was washed out from the roots. Above ground biomass data from each line were converted to biomass accumulation after application by subtracting the appropriate average zero-time biomass from each sample. Dry biomass data were converted to percentages of the untreated control plants within each line to allow direct comparisons between groups. […]

[2] = system: sunflower TH6 (Hybrid, A122T); details: 14 DAT
Method: as §1, §2, §3, §4

[3] = system: sunflower lines carrying the A122T mutation; details: A122T mean minus A205V mean, 14 DAT
Method: as §1, §2, §3, §4

CC(C)C1(C)N=C(c2ncccc2C(=O)O)NC1=O (stereo not drawn) [imazapyr]
Phytotoxicity Index ([1]; 0.5x (40 g ai/ha)): 0.4 | biomass accumulation (above ground dry weight) ([1]; 0.5x (40 g ai/ha)): 96.6 % of untreated plots | plant height ([1]; 0.5x (40 g ai/ha)): 100.4 % of untreated plots | root dry weight ([1]; 0.5x (40 g ai/ha)): 100 % of untreated plots | Phytotoxicity Index ([1]; 1x (80 g ai/ha)): 0.4 | biomass accumulation (above ground dry weight) ([1]; 1x (80 g ai/ha)): 93.9 % of untreated plots | plant height ([1]; 1x (80 g ai/ha)): 99.9 % of untreated plots | root dry weight ([1]; 1x (80 g ai/ha)): 99.0 % of untreated plots | Phytotoxicity Index ([1]; 2x (160 g ai/ha)): 0.4 | biomass accumulation (above ground dry weight) ([1]; 2x (160 g ai/ha)): 81.6 % of untreated plots | plant height ([1]; 2x (160 g ai/ha)): 92.0 % of untreated plots | root dry weight ([1]; 2x (160 g ai/ha)): 86.1 % of untreated plots | Phytotoxicity Index ([1]; 3x (240 g ai/ha)): 0.5 | biomass accumulation (above ground dry weight) ([1]; 3x (240 g ai/ha)): 75.8 % of untreated plots | plant height ([1]; 3x (240 g ai/ha)): 90.5 % of untreated plots | root dry weight ([1]; 3x (240 g ai/ha)): 81.5 % of untreated plots | Phytotoxicity Index ([1]; 4x (320 g ai/ha)): 1.0 | biomass accumulation (above ground dry weight) ([1]; 4x (320 g ai/ha)): 75.0 % of untreated plots | plant height ([1]; 4x (320 g ai/ha)): 90.8 % of untreated plots | root dry weight ([1]; 4x (320 g ai/ha)): 72.6 % of untreated plots | Phytotoxicity Index ([1]; 5x (400 g ai/ha)): 2.0 | biomass accumulation (above ground dry weight) ([1]; 5x (400 g ai/ha)): 60.1 % of untreated plots | plant height ([1]; 5x (400 g ai/ha)): 84.4 % of untreated plots | root dry weight ([1]; 5x (400 g ai/ha)): 68.9 % of untreated plots | Phytotoxicity Index ([1]; 6x (480 g ai/ha)): 2.5 | biomass accumulation (above ground dry weight) ([1]; 6x (480 g ai/ha)): 59.6 % of untreated plots | plant height ([1]; 6x (480 g ai/ha)): 84.4 % of untreated plots | root dry weight ([1]; 6x (480 g ai/ha)): 45.3 % of untreated plots | Phytotoxicity Index ([2]; 0.5x (40 g ai/ha)): 0.5 | biomass accumulation (above ground dry weight) ([2]; 0.5x (40 g ai/ha)): 100 % of untreated plots | plant height ([2]; 0.5x (40 g ai/ha)): 99.2 % of untreated plots | root dry weight ([2]; 0.5x (40 g ai/ha)): 100 % of untreated plots | Phytotoxicity Index ([2]; 1x (80 g ai/ha)): 0.5 | biomass accumulation (above ground dry weight) ([2]; 1x (80 g ai/ha)): 97.2 % of untreated plots | plant height ([2]; 1x (80 g ai/ha)): 98.6 % of untreated plots | root dry weight ([2]; 1x (80 g ai/ha)): 98.1 % of untreated plots | Phytotoxicity Index ([2]; 2x (160 g ai/ha)): 0.5 | biomass accumulation (above ground dry weight) ([2]; 2x (160 g ai/ha)): 97.9 % of untreated plots | plant height ([2]; 2x (160 g ai/ha)): 100.3 % of untreated plots | root dry weight ([2]; 2x (160 g ai/ha)): 98.2 % of untreated plots | Phytotoxicity Index ([2]; 3x (240 g ai/ha)): 0.5 | biomass accumulation (above ground dry weight) ([2]; 3x (240 g ai/ha)): 98.2 % of untreated plots | plant height ([2]; 3x (240 g ai/ha)): 99.8 % of untreated plots | root dry weight ([2]; 3x (240 g ai/ha)): 79.3 % of untreated plots | Phytotoxicity Index ([2]; 4x (320 g ai/ha)): 0.5 | biomass accumulation (above ground dry weight) ([2]; 4x (320 g ai/ha)): 97.8 % of untreated plots | plant height ([2]; 4x (320 g ai/ha)): 101.0 % of untreated plots | root dry weight ([2]; 4x (320 g ai/ha)): 78.4 % of untreated plots | Phytotoxicity Index ([2]; 5x (400 g ai/ha)): 0.5 | biomass accumulation (above ground dry weight) ([2]; 5x (400 g ai/ha)): 85.1 % of untreated plots | plant height ([2]; 5x (400 g ai/ha)): 87.0 % of untreated plots | root dry weight ([2]; 5x (400 g ai/ha)): 85.8 % of untreated plots | Phytotoxicity Index ([2]; 6x (480 g ai/ha)): 0.5 | biomass accumulation (above ground dry weight) ([2]; 6x (480 g ai/ha)): 79.5 % of untreated plots | plant height ([2]; 6x (480 g ai/ha)): 79.6 % of untreated plots | root dry weight ([2]; 6x (480 g ai/ha)): 57.3 % of untreated plots | biomass accumulation, Dif A122T-A205V ([3]; 0.5x (40 g ai/ha)): 4.3 % of untreated plots | plant height, Dif A122T-A205V ([3]; 0.5x (40 g ai/ha)): 4.9 % of untreated plots | root dry weight, Dif with A122T-A205V ([3]; 0.5x (40 g ai/ha)): 12.7 % of untreated plots | biomass accumulation, Dif A122T-A205V ([3]; 1x (80 g ai/ha)): 14.5 % of untreated plots | plant height, Dif A122T-A205V ([3]; 1x (80 g ai/ha)): 9.4 % of untreated plots | root dry weight, Dif with A122T-A205V ([3]; 1x (80 g ai/ha)): 26.7 % of untreated plots | biomass accumulation, Dif A122T-A205V ([3]; 2x (160 g ai/ha)): 33.2 % of untreated plots | plant height, Dif A122T-A205V ([3]; 2x (160 g ai/ha)): 28.0 % of untreated plots | root dry weight, Dif with A122T-A205V ([3]; 2x (160 g ai/ha)): 43.6 % of untreated plots | biomass accumulation, Dif A122T-A205V ([3]; 3x (240 g ai/ha)): 45.3 % of untreated plots
